Measured values taken from patent publication EP4772505A1, “COMPOUND FOR DEGRADING ANDROGEN RECEPTOR AND MEDICAL USE THEREOF” (Ubix Therapeutics, Inc., priority 2023, dated 2025).

What follows are compounds tested against T1, Androgen Receptor (AR) (Homo sapiens, UniProt P10275, T878A) (assay: Measurement of AR protein degradation in LNCaP cells by Western blotting). Conditions: 10 nM compound, 20 hours, LNCaP cells; read-out: AR degradation in LNCaP cells (%).
T1 construct: endogenous in cells; host or cells: LNCaP
T1 sequence (P10275 1-920 T878A): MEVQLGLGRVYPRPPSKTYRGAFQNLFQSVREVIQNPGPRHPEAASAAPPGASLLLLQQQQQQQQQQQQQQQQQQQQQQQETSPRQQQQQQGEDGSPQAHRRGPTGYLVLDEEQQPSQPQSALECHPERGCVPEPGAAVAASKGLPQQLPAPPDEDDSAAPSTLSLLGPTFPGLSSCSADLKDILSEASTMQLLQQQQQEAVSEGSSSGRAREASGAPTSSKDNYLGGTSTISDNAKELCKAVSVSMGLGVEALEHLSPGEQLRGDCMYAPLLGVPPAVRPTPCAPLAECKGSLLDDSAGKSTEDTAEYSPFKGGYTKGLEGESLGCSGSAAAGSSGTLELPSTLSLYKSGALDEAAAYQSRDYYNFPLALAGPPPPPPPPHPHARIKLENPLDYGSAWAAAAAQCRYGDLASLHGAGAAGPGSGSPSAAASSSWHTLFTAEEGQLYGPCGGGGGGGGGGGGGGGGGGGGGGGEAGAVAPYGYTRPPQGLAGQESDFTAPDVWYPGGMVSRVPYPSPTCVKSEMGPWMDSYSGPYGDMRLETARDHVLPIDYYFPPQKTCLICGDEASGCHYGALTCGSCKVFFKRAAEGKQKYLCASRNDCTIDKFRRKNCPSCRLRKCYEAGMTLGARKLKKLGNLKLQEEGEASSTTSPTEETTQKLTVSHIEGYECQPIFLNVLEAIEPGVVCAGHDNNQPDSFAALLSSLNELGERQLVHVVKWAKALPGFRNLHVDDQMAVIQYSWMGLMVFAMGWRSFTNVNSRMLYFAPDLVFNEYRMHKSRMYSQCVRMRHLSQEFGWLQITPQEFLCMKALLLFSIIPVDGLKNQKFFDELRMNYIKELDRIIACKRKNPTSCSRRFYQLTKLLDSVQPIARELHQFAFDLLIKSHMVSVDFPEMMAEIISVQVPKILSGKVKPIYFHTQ
Type: cell-based
Experimental: The amount of AR protein present in LNCaP or VCaP cells was measured after treating them with the synthesized compound. The amount of AR protein was measured using Western blotting. The protocol for the experiments using LNCaP or VCaP cells was as follows.
[Culture] LNCaP cells were resuspended in RPMI1640 medium + HEPES (Hyclone, SH30255.01), 10% FBS (Hyclone, SV30207.02), and 1% Penicillin-streptomycin (Welgene, LS 202-02). 3 x 10^5 cells/mL were seeded in 12-well plates (1 mL per well) and cultured for 3 days. VCaP cells were resuspended in IMDM MEDIUM (Hyclone, SH30228.01), 20% FBS (Hyclone, SV30207.02), and 1% Penicillin-streptomycin (Welgene, LS 202-02), seeded at 9 x 10^5/mL in 1 mL per 12-well plate, and cultured for 3 days.
[Compound Treatment] 10 µL of 100x stock (e.g., 0.1, 1, 10 µM) compound solution at the final compound treatment concentration (e.g., 0.001, 0.01, 0.1 µM) was added to each well in 1 mL media, and cells were harvested after 20 hours. For DC50 measurement, 100x stock (0.01, 0.1, 1, 10, 100, 1000 µM) compound solutions at the final compound treatment concentration (0.0001, 0.001, 0.01, 0.1, 1, 10 µM) were used.
[Cell lysis] The cell pellet was suspended using 1% SDS lysis buffer (50 mM Tris, 1 mM EDTA, 1% SDS, pH 8.0, 0.5 mM PMSF, 1x Protease/Phosphatase inhibitor Cocktail (Cell Signaling Technology, 5872S)), and sonication (70% AMP, 10 cycles (30 sec ON/59 sec OFF)) was performed. After centrifugation at 4°C and 20,000 g for 20 minutes, the cell lysate was obtained and transferred to a new tube.
[Protein Quantification] A BCA protein assay (SMART™ BCA Protein Assay Kit, iNtRON Biotechnology, 21071) was performed using a 96-well microplate. 5 µL of cell lysate and 5 µL of 1% SDS lysis buffer were added to each well of the 96-well plate, followed by an additional 200 µL of BCA reagent (Reagent A: Reagent B = 50:1). The wells were incubated at 37°C for 30 minutes and cooled to room temperature for 10 minutes. After shaking for 10 seconds, the absorbance was measured at a wavelength of 562 nm. The unknown protein concentration was determined using a BSA standard curve (0, 0.125, 0.25, 0.5, 1, 2 mg/mL). Western blotting samples were prepared by mixing cell lysate, 1% SDS lysis buffer, 4x NuPAGE™ LDS Sample buffer (Invitrogen, NP0008), and 10X NuPAGE™ Sample Reducing Agent (Invitrogen, NP0009) and boiling at 70°C for 10 minutes.
[Electrophoresis] 10 µg of protein sample was loaded into each well of a NuPAGE™ 4 to 12%, Bis-Tris, 1.0 mm Mini Protein Gel, 15-well, 17-well, or 26-well (Invitrogen, NP0323BOX, NP0329BOX, or WG1403BOX) and electrophoresed for 40 minutes using NuPAGE™MES SDS Running Buffer (Invitrogen, NP0002) at 200 V (constant V).
[Transfer] Transfer was performed for 15 or 18 minutes using the electrophoresed gel and the Trans-Blot® Turbo™ Transfer Starter System (Bio-RAD, #17001918, Mini Nitrocellulose) at 1.3 A (constant A) and 25 V (limit V). To confirm protein transfer, 15 mL of Ponceau S solution (Sigma, P7170-1L) was used to stain for 1 minute, and then washed to check the degree of transfer.
[Blocking] The membrane for AR and GAPDH detection was blocked with 5% skim milk/0.2% TBST (Skim milk: BD, 232100/ 20X TBS: Biosesang, TR2008-100-00/ 10% Tween 20 Solution: Bio-RAD, #161-0781) for 45 minutes.
[Antibodies and Detection] Primary AR antibody (Androgen Receptor: CST, 5153S) was mixed with 5% skim milk/0.2% TBST at a ratio of 1:1,000 and reacted at room temperature for 3 hours or at 4°C overnight. Primary GAPDH antibody (CST, 2118S) was mixed with 5% skim milk/0.2% TBST at a ratio of 1:2,000 and reacted at room temperature for 3 hours or at 4°C overnight. Afterwards, TBST (0.2% Tween 20) was used for washing three times every 5 minutes. Secondary antibody to AR antibody, Anti-rabbit IgG, HRP-linked Antibody (CST, 7074S), was mixed with 5% skim milk/0.2% TBST at a ratio of 1:5,000 and reacted at room temperature for 45 minutes. […]
In the case of `COc1cc(N2CCC(C(=O)Nc3ccc(OC4CCN(CC5CCN(c6ccc(NC7CCC(=O)NC7=O)cc6F)CC5)CC4)nn3)CC2)ccc1C#N` (stereo not shown) [Example 16, 1-(4-cyano-3-methoxyphenyl)-N-(6-((1-((1-(4-((2,6-dioxopiperidin-3-yl)amino)-2-fluorophenyl)piperidin-4-yl)methyl)piperidin-4-yl)oxy)pyridazin-3-yl)piperidine-4-carboxamide], the Dmax at 0.01 µM is reported as 93%.

Same assay, conditions: 100 nM compound, 20 hours, LNCaP cells; read-out: AR degradation in LNCaP cells (%)
`COc1cc(N2CCC(C(=O)Nc3ccc(OC4CCN(CC5CCN(c6ccc(NC7CCC(=O)NC7=O)cc6F)CC5)CC4)nn3)CC2)ccc1C#N` (stereo not shown) [Example 16, 1-(4-cyano-3-methoxyphenyl)-N-(6-((1-((1-(4-((2,6-dioxopiperidin-3-yl)amino)-2-fluorophenyl)piperidin-4-yl)methyl)piperidin-4-yl)oxy)pyridazin-3-yl)piperidine-4-carboxamide] showed a Dmax at 0.1 µM of 98%.

Same assay, conditions: LNCaP, 20 h, read-out: AR degradation in LNCaP cells (%)
In the case of `N#Cc1ccc(N2CCC(C(=O)Nc3ccc(OC4CCN(CC5CCN(c6ccc(N[C@H]7CCC(=O)NC7=O)cc6F)CC5)CC4)cn3)CC2)cc1C(F)(F)F` [Example 2, (S)-1-(4-cyano-3-(trifluoromethyl)phenyl)-N-(5-((1-((1-(4-((2,6-dioxopiperidin-3-yl)amino)-2-fluorophenyl)piperidin-4-yl)methyl)piperidin-4-yl)oxy)pyridin-2-yl)piperidine-4-carboxamide], the Dmax at 0.01 µM is reported as 86% and the Dmax at 0.1 µM is reported as 99%. Work on `N#Cc1ccc(N2CCC(C(=O)Nc3ccc(OC4CCN(CC5CCN(c6ccc(NC7CCC(=O)NC7=O)cc6F)CC5)CC4)cn3)CC2)cc1Cl` (stereo not shown) [Example 8, 1-(3-chloro-4-cyanophenyl)-N-(5-((1-((1-(4-((2,6-dioxopiperidin-3-yl)amino)-2-fluorophenyl)piperidin-4-yl)methyl)piperidin-4-yl)oxy)pyridin-2-yl)piperidine-4-carboxamide] yielded a Dmax at 0.01 µM of 91% and a Dmax at 0.1 µM of 98%. With `N#Cc1ccc(N2CCC(C(=O)Nc3ccc(OC4CCN(CC5CCN(c6ccc(N[C@H]7CCC(=O)NC7=O)cc6F)CC5)CC4)cn3)CC2)cc1Cl` [Example 9, (S)-1-(3-chloro-4-cyanophenyl)-N-(5-((1-((1-(4-((2,6-dioxopiperidin-3-yl)amino)-2-fluorophenyl)piperidin-4-yl)methyl)piperidin-4-yl)oxy)pyridin-2-yl)piperidine-4-carboxamide] the Dmax at 0.01 µM was 86% and the Dmax at 0.1 µM was 96%. For `N#Cc1ccc(N2CCC(C(=O)Nc3ccc(OC4CCN(CC5CCN(c6ccc(N[C@@H]7CCC(=O)NC7=O)cc6F)CC5)CC4)cn3)CC2)cc1C(F)(F)F` [Example 3, (R)-1-(4-cyano-3-(trifluoromethyl)phenyl)-N-(5-((1-((1-(4-((2,6-dioxopiperidin-3-yl)amino)-2-fluorophenyl)piperidin-4-yl)methyl)piperidin-4-yl)oxy)pyridin-2-yl)piperidine-4-carboxamide], the Dmax at 0.01 µM was 93% and the Dmax at 0.1 µM was 99%. With `N#Cc1ccc(N2CCC(C(=O)Nc3ccc(OC4CCN(CC5CCN(c6ccc(NC7CCC(=O)NC7=O)cc6F)CC5)CC4)cn3)CC2)c(F)c1Cl` (stereo not shown) [Example 12, 1-(3-chloro-4-cyano-2-fluorophenyl)-N-(5-((1-((1-(4-((2,6-dioxopiperidin-3-yl)amino)-2-fluorophenyl)piperidin-4-yl)methyl)piperidin-4-yl)oxy)pyridin-2-yl)piperidine-4-carboxamide] the Dmax at 0.01 µM was 88% and the Dmax at 0.1 µM was 96%. `N#Cc1ccc(N2CCC(C(=O)Nc3ccc(OC4CCN(CC5CCN(c6ccc(NC7CCC(=O)NC7=O)cc6Cl)CC5)CC4)cn3)CC2)cc1C(F)(F)F` (stereo not shown) [Example 17, N-(5-((1-((1-(2-chloro-4-((2,6-dioxopiperidin-3-yl)amino)phenyl)piperidin-4-yl)methyl)piperidin-4-yl)oxy)pyridin-2-yl)-1-(4-cyano-3-(trifluoromethyl)phenyl)piperidine-4-carboxamide] was tested, and the Dmax at 0.01 µM was 77% and the Dmax at 0.1 µM was 99%. `N#Cc1ccc(N2CCC(C(=O)Nc3ccc(OC4CCN(CC5CCN(c6ccc(N[C@@H]7CCC(=O)NC7=O)cc6F)CC5)CC4)cn3)CC2)cc1Cl` [Example 10, (R)-1-(3-chloro-4-cyanophenyl)-N-(5-((1-((1-(4-((2,6-dioxopiperidin-3-yl)amino)-2-fluorophenyl)piperidin-4-yl)methyl)piperidin-4-yl)oxy)pyridin-2-yl)piperidine-4-carboxamide] gave a Dmax at 0.01 µM of 90% and a Dmax at 0.1 µM of 99%. For `N#Cc1ccc(N2CCC(C(=O)Nc3ccc(OC4CCN(CC5CCN(c6ccc(NC7CCC(=O)NC7=O)cc6F)CC5)CC4)nn3)CC2)c(F)c1Cl` (stereo not shown) [Example 15, 1-(3-chloro-4-cyano-2-fluorophenyl)-N-(6-((1-((1-(4-((2,6-dioxopiperidin-3-yl)amino)-2-fluorophenyl)piperidin-4-yl)methyl)piperidin-4-yl)oxy)pyridazin-3-yl)piperidine-4-carboxamide], the Dmax at 0.01 µM was 88% and the Dmax at 0.1 µM was 90%. `N#Cc1ccc(N2CCC(C(=O)Nc3ccc(OC4CCN(CC5CCN(c6ccc(NC7CCC(=O)NC7=O)cc6F)CC5)CC4)cn3)CC2)cc1C(F)(F)F` (stereo not shown) [Example 1, 1-(4-cyano-3-(trifluoromethyl)phenyl)-N-(5-((1-((1-(4-((2,6-dioxopiperidin-3-yl)amino)-2-fluorophenyl)piperidin-4-yl)methyl)piperidin-4-yl)oxy)pyridin-2-yl)piperidine-4-carboxamide] gave a Dmax at 0.01 µM of 84% and a Dmax at 0.1 µM of 99%. With `N#Cc1ccc(N2CCC(C(=O)Nc3ccc(OC4CCN(CC5CCN(c6ccc(NC7CCC(=O)NC7=O)cc6F)CC5)CC4)nn3)CC2)cc1C(F)(F)F` (stereo not shown) [Example 7, 1-(4-cyano-3-(trifluoromethyl)phenyl)-N-(6-((1-((1-(4-((2,6-dioxopiperidin-3-yl)amino)-2-fluorophenyl)piperidin-4-yl)methyl)piperidin-4-yl)oxy)pyridazin-3-yl)piperidine-4-carboxamide] the Dmax at 0.01 µM was 79% and the Dmax at 0.1 µM was 93%.
